The subject of test [1] is A431 cells. In words: Spheroid formation assay, A431 cells. The following applies: 20 μM, 48 h on day 8 spheroids. The class given is cell-based, human. The procedure:
(§1) In (A), it is shown that A431-derived ECS cells have elevated TG2 and mesenchymal markers. A431 cells (40,000 cells/well) were grown in spheroid media in monolayer conditions or as non-attached spheroids (ECS cells) for 10 d. Cells were harvested and lysates prepared for immunoblot. In (B), A431 cells were electroporated with 3 μg of control- or TG2-siRNA and at 72 h extracts were prepared to assay TG2 and EMT marker level. In (C), A431-derived ECS cells were electroporated with 3 μg of the indicated siRNA and then grown as spheroids for 96 h. […] In (D), A431 cells (500,000 cells/well) were plated in monolayer culture in spheroid media in 100 mm dishes. The following day, at time zero, 0 or 20 μM NC9 was added with fresh addition of medium and NC9 at 24 h. At 48 h the cells were harvested and extracts prepared for immunoblot. In (E), A431 cells were pretreated in 0 or 20 μM NC9 for 2 h and then harvested and 25,000 cells were seeded in the upper chamber above a matrigel-coated membrane in 1 mL of growth medium containing 1% FCS in a Millicell chamber. […] Confluent monolayers were then scratched with a 10-μL pipette tip, rinsed, and width of the wound was monitored for 0-14 h.
Spheroid formation assay. […] Spheroid size and number was monitored with time in culture as previously described (Adhikary, G. et al., PLoS One 8:e84324, 2013).

Test [2] deals with A431 cells. Description: Matrigel invasion assay, A431 cells. The class given is cell-based, human. As for the experimental part:
as §1, with “dishes.” for “dishes. The following day, at time zero, 0 or 20 μM NC9 was added with fresh addition of medium and NC9 at 24 h. At 48 h the cells were harvested and extracts prepared for immunoblot. In (E), A431 cells were pretreated in 0 or 20 μM NC9 for 2 h and then harvested and 25,000 cells were seeded in the upper chamber above a matrigel-coated membrane in 1 mL of growth medium containing 1% FCS in a Millicell chamber.”
In (A), A431 cells were grown as monolayers or in ultralow attachment plates (spheroids) in spheroid medium. […] Spheroid number was counted on days 1, 2 and 3. […] Spheroid number and trypan-blue viable cell number were determined at the indicated times following NC9 addition. […] A wound was created and ability of the cells to close the wound was monitored with time. […]
Invasion assay. […] The membrane was fixed in 4% paraformaldehyde, stained with 1 μg/m DAPI, and the underside of the membrane was photographed with an inverted fluorescent microscope and the number of cells counted.

From patent US10894777B2, “TG2 inhibitor piperazine compounds and uses thereof” (UNIVERSITY OF OTTAWA, priority 2016, dated 2021) come the findings set out here.

In the case of `C=CC(=O)NCCCC[C@H](NC(=O)OCc1ccccc1)C(=O)NCCOCCOCCNS(=O)(=O)c1cccc2c(N(C)C)cccc12` [NC9], the spheroid formation entry with A431 cells [1] is reported as “reduced spheroid formation”. Also, in the test on A431 cells [2] (20 μM 1 hour, 24 hours), the “reduction of ability of A431 ECS cells to invade Matrigel” value amounted to 50%. In the test with A431 cells [2] (20 μM pretreatment 2 h, 30 h), the matrigel invasion result was “reduced matrigel invasion”.
